Laboratory results from patent US7879853B2, “4,6-disubstituted pyrimidines and their use as protein kinase inhibitors” (Bayer Schering Pharma AG, priority 2004, dated 2011).

Experiments:
[1] = biological target: T1, Akt1 (full-length Akt1, inactive) (Homo sapiens, UniProt P31749); assay: Biochemical Akt1 (inactive) assay (full-length Akt1), IMAP, PDK1-dependent activation; details: activation by PDK1 with PIP3 vesicles, 50 μM ATP, 60 min. at room temperature; read-out: Inhibition of Akt1 activation (full-length Akt1, inactive): IC50
T1 construct: recombinant full-length human Akt1 a containing N-terminal His6 tag; His6 (N); purchased Upstate, UK #14-279; host or cells: baculovirus infected Sf21 insect cells
Method: The enzyme is purified using Ni2+/NTA-agarose (Upstate, UK; #14-279).
The enzyme is purified using Ni2+/NTA-agarose.
PDK1-dependent activation and subsequent enzymatic activity of Akt1: Activity of purified human Akt1 is routinely measured in an assay in which the enzyme is first activated by PDK1 in the presence of phosphatidylinositol-3,4,5-triphosphate (PIP3). Once activated, Akt1-dependent phosphorylation of a fluorescence labelled peptide substrate is measured by fluorescence polarisation using the IMAP technology (Molecular Devices).
The phospholipids are prepared as follows: 5 mg DOPC/DOPS are solved in 200 μl 10 mM Tris (pH 7.4) and 300 μg PIP3 are resuspended in 950 μl 10 mM Tris (pH 7.4) by pipetting. 950 μl solved PIP3 are mixed with 50 μl solved DOPC/DOPS and incubated for 2 h at a temperature below 20° C. Then the mixture is subjected to sonification for 30 min. at max. power until a translucent phopholipid vesicle preparation is obtained. Aliquots of the vesicle suspension are frozen at −80° C. until needed, likewise the solved DOPC/DOPS.
Assays are performed in 384-well plates. Incubations are carried out for 60 min. at room temperature. The reaction buffer mixture contains in a final volume of 25 μl: 10 mM Tris pH 7.4, 10 mM MgCl2. 1 mM DTT, and 0,1 mg/ml BSA. In contrast the activation buffer contains: 50 ng/well Akt1, 20 ng/well PDK1, 1.25 μM peptide substrat, 50 μM ATP, and phospholipid vesicles (1:20). Test compounds are added from stock solutions in DMSO before activation of Akt1 by PDK1. After the incubation the beads (IMAP binding reagent; Molecular Devices; 1:167) are added and the fluorescence polarization is measured (excitation 485 nm, emission 530 nm). The analysis of the data is performed using a biostatistical program.

[2] = system: MCF7 cells; assay: Cellular proliferation/cytotoxicity assay (Alamar Blue), MCF7; format: cell-based; details: Homo sapiens; MCF7, 48 hours, Alamar Blue (Resazurin); read-out: Anti-proliferative/cytotoxic activity: IC50 MCF7
Method: (§1) The anti-proliferative activity of the compounds as described herein, is evaluated using MCF7 and MDA-MB-468 (ATCC HTB-22 and HTB-132) cell lines and the Alamar Blue (Resazurin) cell viability assay (O'Brien et al. Eur J Biochem 267, 5421-5426, 2000). Resazurin is reduced to the fluorescent rescrufin by cellular dehydrogenase activity, correlating with viable, proliferating cells. Test compounds are dissolved as 10 mM solutions in DMSO and subsequently diluted. MCF7 or […] cells were seeded into 96 well flat bottom plates at a density of 10000 cells/well (MCF7) or 5000 cells/well (MDA-MB-468) in a volume of 200 μl/well. 24 hours after seeding, 1 μl each of the compound dilutions are added into each well of the 96 well plates. Each compound dilution is tested as at least as duplicates. Wells containing untreated control cells were filled with 200 μl DMEM containing 0.5% v:v DMSO. The cells are then incubated with the substances for 48 hours at 37° C. in a humidified atmosphere containing 5% carbon dioxide. To determine cell viability, 20 μl of a Resazurin solution (Sigma; 90 mg/l) are added. After 4 hours incubation at 37° C. the fluorescence is measured at an extinction of 544 nm and an emission of 590 nm (Wallac Victor2; Perkin Elmer, USA). For the calculation of the cell viability the emission value from untreated cells is set as 100% viability and the emission rates of treated cells are set in relation to the values of untreated cells. Viabilities are expressed as % values. The corresponding IC50 values of the compounds for cytotoxic activity are determined from the concentration-effect curves by means of non-linear regression. The analysis of the data is performed using a biostatistical program (GraphPad Prism, USA).

[3] = system: MDA-MB-468 cells; assay: Cellular proliferation/cytotoxicity assay (Alamar Blue), MDA-MB-468; format: cell-based; details: Homo sapiens; MDA-MB-468, 48 hours, Alamar Blue (Resazurin); read-out: Anti-proliferative/cytotoxic activity: IC50 MDA468
Method: as §1

T1 sequence (P31749 whole entry): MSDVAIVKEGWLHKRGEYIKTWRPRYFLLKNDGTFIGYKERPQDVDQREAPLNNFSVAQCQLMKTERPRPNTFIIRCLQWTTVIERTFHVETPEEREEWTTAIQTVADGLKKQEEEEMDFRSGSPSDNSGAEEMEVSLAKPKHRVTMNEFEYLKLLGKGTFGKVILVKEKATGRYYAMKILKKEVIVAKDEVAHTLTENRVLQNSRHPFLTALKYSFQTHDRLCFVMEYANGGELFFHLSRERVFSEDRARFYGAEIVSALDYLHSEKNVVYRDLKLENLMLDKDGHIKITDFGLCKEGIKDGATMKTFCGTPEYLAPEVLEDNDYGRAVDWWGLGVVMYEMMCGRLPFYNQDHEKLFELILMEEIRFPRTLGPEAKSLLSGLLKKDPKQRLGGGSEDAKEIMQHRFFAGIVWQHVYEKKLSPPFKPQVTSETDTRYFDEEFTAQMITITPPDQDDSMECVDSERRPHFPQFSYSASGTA

CC(C)(N)c1ccc(C(=O)Nc2ccc(Nc3cc(-c4cccc5c4oc4ccccc45)ncn3)cc2)cc1 [Compound 69, 4-(1-Amino-1-methyl-ethyl)-N-[4-(6-dibenzofuran-4-yl-pyrimidin-4-ylamino)-phenyl]-benzamide trifluoracetate]
IC50 [1]: ≤ 4.4 µM
IC50 [2]: ≤ 16.6 µM
IC50 [3]: ≤ 6.05 µM
